Experimental data published in PubChem BioAssay AID1996.
In brackets after ≈: the same amount, converted by molar mass.

Conditions: buffer; pH 7.4; 200.0 µM

Row | SMILES | solubility kinetic [µg/mL]
1 | Cc1nc(SC(C)C(=O)NCc2ccc3c(c2)OCO3)nc(C)c1C (stereo not given) | > 53.9
2 | CCN(CC)CCC/C(=N\O)C(O)(c1ccccc1)c1ccccc1 | > 51.1
3 | CC(=O)Nc1ccc(-c2nc3ccccc3c(=O)o2)cc1 | 0.5 (≈ 1.78 µM)
4 | NS(=O)(=O)c1ccc(CNS(=O)(=O)c2cccc3nonc23)cc1 | 54.4 (≈ 148 µM)
5 | COCCCNc1nc(N)c([N+](=O)[O-])c(Nc2ccccc2OC)n1 | 1 (≈ 2.87 µM)
6 | CN1C(=O)C(O)(C2CCCCCC2=O)c2ccccc21 (stereo not given) | > 41
7 | O=[N+]([O-])c1cc(NCCO)c(N2CCCCCC2)c2nonc12 | 42.3 (≈ 132 µM)
8 | COc1cc(OC)c(C(=O)OCC(=O)NC23CC4CC(CC(C4)C2)C3)cc1OC | 3.9 (≈ 9.67 µM)
9 | Cc1ccc(C(=O)NCC(=O)Nc2ccncc2)cc1C | 12.3 (≈ 43.4 µM)
10 | Fc1ccc(NC(=S)Nc2nccs2)cc1 | 14.9 (≈ 58.8 µM)
11 | Cc1ccc(NC(=O)C2Cc3ccccc3O/C2=N\O)cc1C (stereo not given) | 3.8 (≈ 12.2 µM)
12 | COc1ccc(S(=O)(=O)NCCc2c[nH]c3ccc(Cl)cc23)cc1 | 18.6 (≈ 51 µM)
13 | CCCCN(C(=O)C1COc2ccccc2O1)c1c(N)n(CCC)c(=O)[nH]c1=O (stereo not given) | > 60.4
14 | CC(C)(C)C(=O)NC1(C(F)(F)F)NC(=O)N(c2ccccc2F)C1=O (stereo not given) | > 54.2
15 | Cc1ccc(NC(=O)C(C)OC(=O)CCC2CCCCC2)cc1 (stereo not given) | 4.1 (≈ 12.9 µM)
16 | CCN(CC)Cc1c(O)ccc2c(=O)c(Oc3ccccc3OC)c(C)oc12 | > 57.5
17 | Cc1ccc(-c2nc3ncccc3o2)cc1NC(=O)c1ccccc1 | 0.3 (≈ 0.911 µM)
18 | COc1ccc(C(C)=O)cc1COC(=O)C1CCN(C(=O)c2ccc(Cl)cc2)CC1 | 33.5 (≈ 77.9 µM)
19 | Cc1ccc2c(CN3CCC(C)CC3)cc(=O)oc2c1C | 3.9 (≈ 13.7 µM)
20 | O=C(Nc1ccc2ccccc2n1)c1ccc(Cl)cc1 | < 0.3
21 | c1ccc(Nc2ncnc3sccc23)cc1 | > 34.1
22 | CC1=NN(C(=O)CCc2ccccc2)C(O)(c2ccncc2)C1 (stereo not given) | > 46.4

Row | SMILES | solubility kinetic [µg/mL]
23 | Cc1ccc(C2=NN(CC(=O)NCc3cccs3)C(=O)CC2)cc1 | > 51.2
24 | CC(C)(C)NC(=O)C(=O)NNC(=O)c1cccc([N+](=O)[O-])c1 | > 46.2
25 | COc1ccc(C(=O)Nc2ccc(CN3CCCCC3)cc2)cc1 | > 48.7
26 | O=C(O)c1ccc(Nc2ccc(F)c(F)c2)c([N+](=O)[O-])c1 | > 44.1
27 | Cc1cccc(NC(=O)c2cc(=O)[nH]c3ccccc23)c1 | 3.1 (≈ 11.1 µM)
28 | Cc1csc(Nc2ccc(C(=O)O)cc2)n1 | > 35.1
29 | O=C1CSC(c2ccccn2)N1c1ccc(C(F)(F)F)cc1 (stereo not given) | > 48.6
30 | CC(=O)Nc1ccc(NC(=O)CSc2nc3ccccc3c(=O)n2CCCN2CCOCC2)cc1 | 70.9 (≈ 143 µM)
31 | CCCn1cccc(C(=O)Nc2ccc(OC)cc2)c1=O | > 42.9
32 | CN(CC(=O)Nc1ccc(F)cc1)CC(=O)N1CCCCCC1 | 44.8 (≈ 139 µM)
33 | CC(=O)c1ccc(NC(=O)CCNC(=O)c2ccccc2Cl)cc1 | 48.8 (≈ 142 µM)
34 | CNC(=S)Nc1ccc(N2CCCC2)c(S(=O)(=O)Nc2ccc(OC)cc2)c1 | 34.6 (≈ 82.3 µM)
35 | CCOC(=O)c1ccc(NC(=S)N2CCCC2)cc1 | 39.6 (≈ 142 µM)
36 | COc1ccccc1CNC(=O)CS(=O)(=O)c1ccccc1 | 44 (≈ 138 µM)
37 | Cc1ccc(NC(=O)CCCN2C(=S)NC(C)(C)CC2C)cc1 (stereo not given) | 45.5 (≈ 136 µM)
38 | CNC(=O)c1cc2c(cn1)[nH]c1ccccc12 | 27.5 (≈ 122 µM)
39 | Br.Fc1cccc(CNCC2CCCO2)c1 (stereo not given) | 42.2
40 | CC1Oc2ccccc2N(CC(=O)NCc2ccc3c(c2)OCO3)C1=O (stereo not given) | 18.9 (≈ 53.3 µM)
41 | CC(NC(=O)CSc1ncccn1)c1ccc2c(c1)OCO2 (stereo not given) | > 47.6
42 | CC(C)(C)NC(=O)CCCCCCCC(=O)NC(C)(C)C | > 44.8
43 | O=C(NCCc1ccc(F)cc1)N[C@@H](Cc1ccccc1)C(=O)O | > 49.6
44 | Cc1cccc(C(=O)OC(C)CN2CCCC2)c1.Cl (stereo not given) | > 42.6

Row | SMILES | solubility kinetic [µg/mL]
45 | CCC(C(=O)NCc1ccc(C)cc1)c1ccccc1 (stereo not given) | 20.2 (≈ 75.6 µM)
46 | CCOC(=O)c1csc(COc2ccc(OC)cc2)n1 | 11.3 (≈ 38.5 µM)
47 | CCC1CN(C(=O)NCc2cccc(OC)c2)c2ccccc2O1 (stereo not given) | 43.3 (≈ 133 µM)
48 | Cc1ccc(OCC(=O)Nc2ccc3c(c2)C(=O)NC3=O)c(C)c1 | 0.6 (≈ 1.85 µM)
49 | O=C(Cn1cc(C(F)(F)F)ccc1=O)NCc1ccc(F)cc1 | > 49.2
50 | COc1ccc(C(=O)NCCNC(=O)c2cnccn2)cc1 | 37.1 (≈ 124 µM)
51 | CCOc1ccc(C(=O)OC(C)C(=O)N2CCN(Cc3ccccc3)CC2)cc1 (stereo not given) | > 59.5
52 | COc1ccc(Cl)cc1S(=O)(=O)Nc1noc2ccccc12 | 47 (≈ 139 µM)
53 | CN(Cc1ccccc1)C(=O)COC(=O)C12CC3CC(CC(Br)(C3)C1)C2 | 18.8 (≈ 44.7 µM)
54 | C#Cc1ccc(CN2CCN(Cc3ccsc3)C(CCO)C2)cc1 (stereo not given) | 36.3 (≈ 107 µM)
55 | O=[N+]([O-])C1C(c2ccccc2)=NOC1c1ccccc1O (stereo not given) | > 42.6
56 | Nc1ncnc(Oc2cccc(C(F)(F)F)c2)c1[N+](=O)[O-] | 7.6 (≈ 25.3 µM)
57 | COc1cc([N+](=O)[O-])ccc1NC(=O)/C=C\C(=O)O | > 39.9
58 | Cc1ccc(O)c(N/C=C/C(=O)c2ccc(F)cc2)c1 | 1.1 (≈ 4.05 µM)
59 | O=C(COC(=O)c1ccc(Cl)nc1)c1ccc2c(c1)OCCO2 | 14.7 (≈ 44 µM)
60 | CCOC(=O)c1c(O)c2cc(Cl)ccc2n(CC)c1=O | > 44.4
61 | Cc1ccc(C)c(NC(=S)NC23CN4CN(CN(C4)C2)C3)c1 | > 47.6
62 | Oc1ccc(Cl)cc1C=Nc1ccc(Br)cc1 | 21.4 (≈ 68.9 µM)
63 | CC1(C)CCc2cc(-c3ccnc(=S)[nH]3)ccc2O1 | 8.5 (≈ 31.2 µM)
64 | COC(=O)c1sccc1NC(=S)N1C(C)CCCC1C (stereo not given) | 20.3 (≈ 65 µM)
65 | O=[N+]([O-])c1ccccc1/C=N/OCc1ccccc1 | 2.6 (≈ 10.1 µM)
66 | O=C(NCc1ccco1)C1CCCN1C(=O)Nc1ccc(Cl)cc1 (stereo not given) | 3.4 (≈ 9.78 µM)

Row | SMILES | solubility kinetic [µg/mL]
67 | COc1ccccc1C(=O)CC(=O)C(=O)Nc1cccc([N+](=O)[O-])c1C | 15.5 (≈ 43.5 µM)
68 | COc1cc(C=O)ccc1OC(=O)c1cccnc1 | 33.7 (≈ 131 µM)
69 | Cc1ccc(C(=O)Nc2ccc(NC(=O)c3ccco3)c(C)c2)cc1 | 2.8 (≈ 8.37 µM)
70 | CC(=O)c1cccc(NC(=O)CCn2c(=O)oc3ccccc32)c1 | 19.7 (≈ 60.7 µM)
71 | O=C1CN(c2ccccc2)C(=S)N1c1ccccc1.[Na+] | 7.4
72 | O=S(=O)(NCc1cn2ccccc2n1)c1cccs1 | > 44
73 | CC1(C)C(=S)N(Cc2ccccc2)c2ccccc21 | < 0.6
74 | O=[N+]([O-])c1ccc(NCc2ccccc2N2CCC(CO)CC2)nc1 | 12.4 (≈ 36.2 µM)
75 | CCN(C(=O)C(C)Cl)c1ccccc1 (stereo not given) | 20.6 (≈ 97.3 µM)
76 | O=C(NC1CCCCC1)c1cc(-c2ccc(F)cc2)on1 | < 0.3
77 | COc1ccc(NC(=O)C2CCCN(c3nccc(C)n3)C2)cc1 (stereo not given) | 3.8 (≈ 11.6 µM)
78 | Nc1nonc1C(=O)NCCNc1ncccc1[N+](=O)[O-] | 30.2 (≈ 103 µM)
79 | Cc1c(C(=O)O)nn(-c2cccc(C(F)(F)F)c2)c(=O)c1C#N | > 48.5
80 | C=CCN(C(=O)Nc1ccc2c(c1)nc(C)n2C)c1ccccc1 | > 48.1
81 | O=C(NC1=NCCS1)c1cccc(OC(F)F)c1 | 23.9 (≈ 87.8 µM)
82 | CCc1noc(C)c1C(=O)NCCc1ccccc1 | > 38.7
83 | C[Si](C)(C)n1ccnc1 | 14.6 (≈ 104 µM)
84 | Cc1[nH]c2ccccc2c1C(=O)CSc1ccccn1 | 1.4 (≈ 4.96 µM)
85 | O=C(Cc1ccccc1[N+](=O)[O-])NCCc1ccc(F)cc1 | 44.6 (≈ 148 µM)
